Values after ≈ are worked out from the molar mass of the structure shown. “Also recorded” adds a separate entry of the source. Where two headings read alike, the source gives them in different places.
Columns and labels:
staphylococcal = conditions: stated or reported, no test in the patent; cited from earlier work
EMRSA-16 [1] = assay: Effect on bacterial growth (viable counts, CFU/ml); assay type: cell-based, S. aureus; conditions: for reduction in cell numbers: over six hours
Protocol: Effect on bacterial growth: EMRSA-16 was grown overnight in Mueller-Hinton broth at 37° C. The overnight culture as diluted 1:400 into 50 ml volumes of pre-warmed (37° C.) Mueller-Hinton broth containing various concentrations of contemplated compounds. The control flask contained ethanol (1 vol %). The flasks were incubated at 37° C. with aeration (200 rpm). At two-hour intervals samples were withdrawn from the flasks, serially diluted in 0.1M phosphate-buffered saline (pH 7.4) solutions, and plated onto nutrient agar (Oxoid). The number of colonies was recorded at 24 h incubation at 37° C. and expressed as the number of CFU/ml.

EMRSA-16 [2] = assay: Bacterial membrane damage (BacLight kit, SYTO 9/propidium iodide) and CFU after 10 min exposure; assay type: cell-based, S. aureus; conditions: for Membrane Effect % Control (BacLight) / Delta Log 10 (CFU/ml): 10 min exposure; for Delta Log 10 (CFU/ml): Log10 decrease vs control
Protocol: Bacterial membrane damage: EMRSA-16 was grown overnight in Mueller-Hinton broth at 37° C. The overnight culture was diluted 1:40 into fresh pre-warmed Mueller-Hinton broth and the diluted culture incubated at 37° C., with aeration (200 rpm), until the optical density at 600 nm (OD600) reached 0.7-0.8. The cells were recovered by centrifugation (10.000×g for 10 min), washed once with filtered-sterilized water, and resuspended to 1:10 the original volume in filter-sterilized water. The culture was further diluted 1:20 into water containing ethanol (1 vol %; the solvent was used to dissolve the compounds) or water containing the catechin. The cells were exposed to the compounds for 10 min (at room temperature and gentle shaking), after which a sample was removed for CFU determination and the remainder of the cells were recovered by centrifugation (10.000×g for 10 min). The cell pellet was washed once with water and then resuspended to an OD670 of 0.15.
Damage to the bacterial cytoplasmic membrane was determined with the reagents (SYTO 9 and propidium iodide) contained in the BacLight kit from Molecular Probes Europe BV (Leiden, The Netherlands). An equal mixture (4.5 microliter each) of SYTO 9 dye and propidium iodide was added to 3 ml of sample in a cuvette and the sample mixed by inversion of the cuvette three times. The sample was maintained in the dark for 15 min and the fluorescence of the two dyes was determined with a spectrofluorometer (Jacso FP-750). Both dyes were excited with a wavelength of 485 nm and the emission of SYTO 9 was read at 530 nm (Em1) and propidium iodide was read at 645 nm (Em2). The ratio of SYTO 9 to propidium iodide emissions (R=Em1/Em2) was expressed as a percentage of the control (BacLight value=[Rsample/Rcontrol]×100). The sample removed for CFU determination was serially diluted in 0.1M phosphate-buffered saline (pH 7.4) then plated onto nutrient agar. The number of colonies on the plates was recorded after 24 h incubation at 37° C. and the results expressed as a Log10 decrease in CFU/ml compared to the control sample.
Staphylococcal membrane damage: Damage to the staphylococcal cytoplasmic membrane was assessed by use of the BacLight kit (Molecular Probes Inc.). The kit makes use of two nucleic acid stains, SYTO-9 and propidium iodide, with different spectral properties and abilities to penetrate intact bacterial membranes. SYTO-9 penetrates both intact and damaged membranes while propidium iodide only penetrates damaged membranes. Cells with intact membranes stain fluorescent green while cells with damaged membranes stain fluorescent red. The ratios of green to red fluorescence, for EMRSA-16 exposed to test compounds, are expressed as a percentage of the control and are given in the table below.

S. aureus BB551 = assay: Electron microscopy, effect on cell wall morphology; assay type: cell-based; conditions: grown overnight in the presence of the compound; electron micrograph
Protocol: Electron microscopy: S. aureus BB551 was grown overnight at 37° C. in Mueller-Hinton broth in the absence and presence of either epicatechin-(−)-gallate or octanoyl-(+)-catechin. The cells were recovered by centrifugation and washed once in 0.1M phosphate-buffered saline, pH 7.4. Cells were fixed in 1.5% glutaraldehyde for at least 2 h at room temperature, treated with osmium tetroxide and embedded in epoxy resin. Sectioning and staining with uranyl acetate was followed by Reynolds' lead citrate. The ultrathin sections were viewed and photographed using a Philips 201 transmission electron microscope.

S. aureus = assay: MIC testing, summary over the three strains tested; assay type: cell-based
Excerpt: (§1) Reagents and bacterial strains: 3-O-(−)-epicatechingallate and (+)-catechin were provided by the Tokyo Food Techno Co., Tokyo, Japan. Octanoic acid and oxacillin were purchased from Sigma (Poole, United Kingdom). The acyl-(+)-catechin derivatives and octanoyl-(−)-epicatechin were synthesised as outlined below. S. aureus BB568 (COL-type strain that carries mecA and pT181) and BB551 (methicillin-sensitive) were provided by Professor B. Berger-Baechi. EMRSA-15 and EMRSA-16 were clinical isolates from the Royal Free Hospital, London. Strains of S. aureus can be considered resistant to methicillin in which growth occurs in the presence of 8 microgram/ml methicillin (National Committee for Clinical Laboratory Standards, 1990—Methods for dilution antimicrobial susceptibility tests for bacteria that grow aerobically (second edition). Document M7-A2. NCCLS, Villanova, Pa., U.S.A.).
(§2) S. aureus ATCC29213 was used as the standard.

EMRSA-16 [3] = assay: Minimum inhibitory concentration (MIC) testing in 96-well microtitre trays; assay type: cell-based, S. aureus
Excerpt: as §1, §2

EMRSA-15 = assay: as above; assay type: cell-based, S. aureus
Excerpt: as §1, §2

S. aureus BB568 = assay: as above; assay type: cell-based
Excerpt: as §1, §2

[4] = system: Erythrocytes from defibrinated Horse blood; assay: Erythrocyte haemolysis; assay type: cell-based; conditions: 10 min
Protocol: Erythrocyte haemolysis: Erythrocytes from defibrinated Horse blood (Oxoid) were collected by centrifugation (6,000×g, 3 min) and washed three to four times in 10 mM Tris-HCI (pH 7.4) containing 0.9% NaCI. The erythrocytes were resuspended to 1% in the wash buffer and 200 microliter of cells was added to 1300 microliter of buffer containing the test compound. The sample was mixed gently for 10 min at room temperature and the intact erythrocytes were removed by centrifugation (6,000×g, 3 min). Haemolysis was evaluated by measuring the absorbance of the supernatant at 540 nm. Cells were added to buffer containing 0.5% NH4OH to give an indication of 100% lysis. The results were expressed as a percentage of absorbance reading for 100% lysis. Buffer containing only washed erythrocytes was used to assess the extent of lysis in the absence of the test compound.
Hemolysis: The amount hemoglobin released from horse blood erythrocytes after exposure to the compounds for 10 min was used to assess the effect of the compounds on eukaryotic membranes.

[5] = EMRSA-16; oxacillin MIC in the presence of the compound (tested at 0.25×MIC)
[6] = Staphylococcus aureus, 24 h, read-out: MIC Catechin
[7] = EMRSA-15; oxacillin MIC in the presence of the compound (tested at 0.25×MIC)
[8] = BB568; oxacillin MIC in the presence of the compound (tested at 0.25×MIC)
[9] = EMRSA-16; MIC of the compound itself; 35° C., 24 h
[10] = EMRSA-15; MIC of the compound itself; 35° C., 24 h
[11] = BB568; MIC of the compound itself; 35° C., 24 h
[12] = Staphylococcus aureus, 24 h; read-out: MIC Catechin

Compound: CCCCCCCCCCCC(=O)O [dedecanoic acid, dedecanoic acid (lauric acid) (C12:0)]
- anti-staphylococcal activity (staphylococcal): anti-staphylococcal activity

Compound: CCCCC/C=C\C/C=C\CCCCCCCC(=O)O [linoleic acid, linoleic acid (C18:8)]
- anti-staphylococcal activity (staphylococcal): anti-staphylococcal activity

Compound: CCCCCCCCCC=CCCCCC(=O)O (single isomer, unassigned) [palmitoleic acid isomer (C16:1delta6)]
- anti-staphylococcal activity (staphylococcal): anti-staphylococcal activity

Compound: O=C(O[C@@H]1Cc2c(O)cc(O)cc2O[C@@H]1c1ccc(O)c(O)c1)c1cc(O)c(O)c(O)c1 [(−)-epicatechingallate, 3-O-(−)-epicatechingallate]
- reduction in cell numbers (EMRSA-16 [1]; 512 microgram/ml): 0.3 Log10
- reduction in cell numbers (EMRSA-16 [1]; 1024 microgram/ml): 0.85 Log10
- reduction in CFU/ml (EMRSA-16 [1]; 1024 microgram/ml, over the 24 h period): 5 Log10
- reduction in viable cell numbers (EMRSA-16 [1]; over the first two hour period, even at 8×MIC): did not give rise to a large reduction in viable cell numbers
- effect on cell viability (EMRSA-16 [2]; 4× and 8×MIC, 10 min): little effect on cell viability
- membrane permeability (EMRSA-16 [2]; 4×MIC): 48%
- membrane permeability (EMRSA-16 [2]; 8×MIC): 64%
- Membrane Effect % Control (BacLight) (EMRSA-16 [2]; 512 mcg/ml): 48%
- Delta Log 10 (CFU/ml) (EMRSA-16 [2]; 512 mcg/ml): 0.0
- Membrane Effect % Control (BacLight) (EMRSA-16 [2]; 1024 mcg/ml): 64%
- Delta Log 10 (CFU/ml) (EMRSA-16 [2]; 1024 mcg/ml): 0.1
- effect on cell wall morphology (S. aureus BB551): pseudomulticellular aggregates with increased cell wall thickening
- MIC (S. aureus; Staphylococcus aureus): 64 to 128 µg/mL (≈ 145 to 289 µM)
- direct antistaphylococcal activity relative to (+)-catechin (S. aureus; greater activity than (+)-catechin): at least 4 fold
- MIC Oxacillin (EMRSA-16 [3]; [5]): 1 MICROGRAM/ML
- MIC (EMRSA-16 [3]; [6]): 128 µg/mL (≈ 289 µM)
- MIC Oxacillin (EMRSA-15; [7]): 1 MICROGRAM/ML
- MIC (EMRSA-15; [6]): 128 µg/mL (≈ 289 µM)
- MIC Oxacillin (S. aureus BB568; [8]): <1 MICROGRAM/ML
- MIC Oxacillin (S. aureus BB568; BB568; oxacillin MIC in the presence of the compound (tested at 0.25×MIC); listed as epicatechin gallate): less than 1 MICROGRAM/ML
- MIC (S. aureus BB568; Staphylococcus aureus, BB568, 24 h, read-out: MIC Catechin): 128 µg/mL (≈ 289 µM)
- hemolysis ([4]; 4×MIC): did not give rise to hemolysis
- hemolysis ([4]; 8×MIC): 21%
- % Hemolysis ([4]; 512 mcg/ml): 6%
- % Hemolysis ([4]; 1024 mcg/ml): 21%

Compound: Oc1cc(O)c2c(c1)O[C@H](c1ccc(O)c(O)c1)[C@@H](O)C2 [(+)-catechin]
- MIC (S. aureus; the three strains tested): > 256 microgram/ml
- MIC Catechin (EMRSA-16 [3]; [9]): >256 MICROGRAM/ML
- MIC Oxacillin (EMRSA-16 [3]; [5]): 512 MICROGRAM/ML
- MIC Catechin (EMRSA-15; [10]): >256 MICROGRAM/ML
- MIC Oxacillin (EMRSA-15; [7]): 32 MICROGRAM/ML
- MIC Catechin (S. aureus BB568; [11]): >256 MICROGRAM/ML
- MIC Oxacillin (S. aureus BB568; [8]): 256 MICROGRAM/ML

Compound: O=C(O)c1cc(O)c(O)c(O)c1 [Gallic acid]
- anti-staphylococcal activity (staphylococcal): no anti-staphylococcal activity

Compound: Cc1onc(-c2ccccc2)c1C(=O)N[C@@H]1C(=O)N2[C@@H]1SC(C)(C)[C@@H]2C(=O)O [Oxacillin, oxacillin]
- MIC (EMRSA-16 [3]; Staphylococcus aureus; EMRSA-16; oxacillin alone; read-out: MIC Oxacillin): 512 µg/mL (≈ 1280 µM)
- MIC (EMRSA-15; Staphylococcus aureus; EMRSA-15; oxacillin alone; read-out: MIC Oxacillin): 32 µg/mL (≈ 79.7 µM)
- MIC (S. aureus BB568; Staphylococcus aureus; BB568; oxacillin alone; read-out: MIC Oxacillin): 256 µg/mL (≈ 638 µM)

Compound: CCCCCCCC(=O)O [Octanoic acid]
- concentration giving significant membrane damage (EMRSA-16 [2]): > 1024 microgram/ml
- Membrane Effect % Control (BacLight) (EMRSA-16 [2]; 16 mcg/ml): 74%
- Delta Log 10 (CFU/ml) (EMRSA-16 [2]; 16 mcg/ml): −0.1
- Membrane Effect % Control (BacLight) (EMRSA-16 [2]; 32 mcg/ml): 75%
- Delta Log 10 (CFU/ml) (EMRSA-16 [2]; 32 mcg/ml): 0.1
- Membrane Effect % Control (BacLight) (EMRSA-16 [2]; 64 mcg/ml): 2%
- Delta Log 10 (CFU/ml) (EMRSA-16 [2]; 64 mcg/ml): >7.0
- direct activity against S. aureus (S. aureus; result in words): no direct activity; also recorded: not active
- capacity to reduce the oxacillin MIC (S. aureus; tested at 0.25×MIC): two-fold
- MIC Oxacillin (EMRSA-16 [3]; [5]): 512 MICROGRAM/ML
- MIC (EMRSA-16 [3]; [12]): 1020 µg/mL (≈ 7100 µM)
- MIC Oxacillin (EMRSA-15; [7]): 32 MICROGRAM/ML
- MIC (EMRSA-15; [12]): 1020 µg/mL (≈ 7100 µM)
- MIC Oxacillin (S. aureus BB568; [8]): 256 MICROGRAM/ML
- MIC (S. aureus BB568; Staphylococcus aureus, BB568, 24 h; read-out: MIC Catechin): 1020 µg/mL (≈ 7100 µM)
- hemolysis ([4]; 2×MIC): complete hemolysis
- % Hemolysis ([4]; horse, 16 mcg/ml, pH 7.4): 3%
- % Hemolysis ([4]; horse, 32 mcg/ml, pH 7.4): 4%
- % Hemolysis ([4]; horse, 64 mcg/ml, pH 7.4): 100%

Compound: CCCCCCCCCCCCCCCCCC(=O)O[C@H]1Cc2c(O)cc(O)cc2O[C@@H]1c1ccc(O)c(O)c1 [3-O-staeoryl-(+)-catechin, 3-O-stearoyl-(+)-catechin]
- MIC Catechin (EMRSA-16 [3]; [9]): >32 MICROGRAM/ML
- MIC Oxacillin (EMRSA-16 [3]; [5]): 512 MICROGRAM/ML
- MIC Catechin (EMRSA-15; [10]): >32 MICROGRAM/ML
- MIC Oxacillin (EMRSA-15; [7]): 32 MICROGRAM/ML
- MIC Catechin (S. aureus BB568; [11]): 32 MICROGRAM/ML
- MIC Oxacillin (S. aureus BB568; [8]): 256 MICROGRAM/ML
